# Source: PubChem BioAssay AID1259407 (Chemical Carcinogenesis Research Information System (CCRIS), 2018)
# Activity calls are given as the source filed them. No rule for the calls is given here.
# Test system: CCRIS mutagenicity, Ames/micronucleus/aberration tests
# Assay: CCRIS mutagenicity studies
smiles,measurement,setting,value
O=C(O)CN(CC(=O)O)CC(=O)O,mutagenic call,"End Point: IN VITRO CHROMOSOMAL ABERRATIONS, Test System: CHO CELLS, Metabolic Activation: NONE",inactive; negative
same,mutagenic call,"End Point: IN VITRO CHROMOSOMAL ABERRATIONS, Test System: CHO CELLS, Metabolic Activation: RAT, LIVER, S-9, AROCLOR 1254",inactive; negative
same,mutagenic call,"End Point: IN VITRO MICRONUCLEUS, Test System: CHINESE HAMSTER EMBRYONIC LUNG (CL-1) CELLS, Metabolic Activation: NONE",active; positive at higher doses
same,mutagenic call,"End Point: In vitro micronucleus, Test System: CTLL-2 T mouse lymphocyte cells, Metabolic Activation: None",active; positive
same,mutagenic call,"End Point: In vitro micronucleus, Test System: CTLL-2 T mouse lymphocyte cells, Metabolic Activation: Rat, Kidney, S9, Aroclor 1254 with NADP",inactive; negative
same,mutagenic call,"End Point: In vitro micronucleus, Test System: CTLL-2 T mouse lymphocyte cells, Metabolic Activation: Rat, Kidney, S9, Aroclor 1254 with arachidonic acid instead of NADP",inactive; negative
same,mutagenic call,"End Point: In vitro micronucleus, Test System: CTLL-2 T mouse lymphocyte cells, Metabolic Activation: Rat, Liver, S9, Aroclor 1254",inactive; negative
same,mutagenic call,"End Point: In vitro micronucleus, Test System: CTLL-2 bcl2 mouse lymphocyte cells, Metabolic Activation: None",active; positive
same,mutagenic call,"End Point: In vitro micronucleus, Test System: CTLL-2 bcl2 mouse lymphocyte cells, Metabolic Activation: Rat, Kidney, S9, Aroclor 1254 with NADP",inactive; negative
same,mutagenic call,"End Point: In vitro micronucleus, Test System: CTLL-2 bcl2 mouse lymphocyte cells, Metabolic Activation: Rat, Kidney, S9, Aroclor 1254 with arachidonic acid instead of NADP",inactive; negative
same,mutagenic call,"End Point: In vitro micronucleus, Test System: CTLL-2 bcl2 mouse lymphocyte cells, Metabolic Activation: Rat, Liver, S9, Aroclor 1254",inactive; negative
same,mutagenic call,"End Point: In vitro micronucleus, Test System: L5178Y mouse lymphoma cells, Metabolic Activation: None",active; positive
same,mutagenic call,"End Point: In vitro micronucleus, Test System: L5178Y mouse lymphoma cells, Metabolic Activation: Rat, Kidney, S9, Aroclor 1254 with NADP",inactive; negative
same,mutagenic call,"End Point: In vitro micronucleus, Test System: L5178Y mouse lymphoma cells, Metabolic Activation: Rat, Kidney, S9, Aroclor 1254 with arachidonic acid instead of NADP",inactive; negative
same,mutagenic call,"End Point: In vitro micronucleus, Test System: L5178Y mouse lymphoma cells, Metabolic Activation: Rat, Liver, S9, Aroclor 1254",inactive; negative
same,mutagenic call,"Test System: AMES SALMONELLA TYPHIMURIUM, Strain/Indicator: TA97, Metabolic Activation: HAMSTER, LIVER, S-9, AROCLOR 1254 (10 OR 30%), Method: PREINCUBATION",inactive; negative
same,mutagenic call,"Test System: AMES SALMONELLA TYPHIMURIUM, Strain/Indicator: TA97, Metabolic Activation: NONE, Method: PREINCUBATION",inactive; negative
same,mutagenic call,"Test System: AMES SALMONELLA TYPHIMURIUM, Strain/Indicator: TA97, Metabolic Activation: NONE, Method: SUSPENSION/PLATE",inactive; negative
same,mutagenic call,"Test System: AMES SALMONELLA TYPHIMURIUM, Strain/Indicator: TA97, Metabolic Activation: RAT, LIVER, S-9, AROCLOR 1254 (10 OR 30%), Method: PREINCUBATION",inactive; negative
same,mutagenic call,"Test System: AMES SALMONELLA TYPHIMURIUM, Strain/Indicator: TA98, Metabolic Activation: HAMSTER, LIVER, S-9, AROCLOR 1254 (10 OR 30%), Method: PREINCUBATION",inactive; negative
same,mutagenic call,"Test System: AMES SALMONELLA TYPHIMURIUM, Strain/Indicator: TA98, Metabolic Activation: HAMSTER, LIVER, S-9, AROCLOR 1254, Method: STANDARD PLATE",inactive; negative
same,mutagenic call,"Test System: AMES SALMONELLA TYPHIMURIUM, Strain/Indicator: TA98, Metabolic Activation: HAMSTER, LIVER, S-9, Method: STANDARD PLATE",inactive; negative
same,mutagenic call,"Test System: AMES SALMONELLA TYPHIMURIUM, Strain/Indicator: TA98, Metabolic Activation: MOUSE, LIVER, S-9, AROCLOR 1254, Method: STANDARD PLATE",inactive; negative
same,mutagenic call,"Test System: AMES SALMONELLA TYPHIMURIUM, Strain/Indicator: TA98, Metabolic Activation: MOUSE, LIVER, S-9, Method: STANDARD PLATE",inactive; negative
same,mutagenic call,"Test System: AMES SALMONELLA TYPHIMURIUM, Strain/Indicator: TA98, Metabolic Activation: NONE, Method: PREINCUBATION",inactive; negative
same,mutagenic call,"Test System: AMES SALMONELLA TYPHIMURIUM, Strain/Indicator: TA98, Metabolic Activation: NONE, Method: STANDARD PLATE",inactive; negative
same,mutagenic call,"Test System: AMES SALMONELLA TYPHIMURIUM, Strain/Indicator: TA98, Metabolic Activation: NONE, Method: SUSPENSION/PLATE",inactive; negative
same,mutagenic call,"Test System: AMES SALMONELLA TYPHIMURIUM, Strain/Indicator: TA98, Metabolic Activation: RAT, LIVER, S-9, AROCLOR 1254 (10 OR 30%), Method: PREINCUBATION",inactive; negative
same,mutagenic call,"Test System: AMES SALMONELLA TYPHIMURIUM, Strain/Indicator: TA98, Metabolic Activation: RAT, LIVER, S-9, AROCLOR 1254, Method: STANDARD PLATE",inactive; negative
same,mutagenic call,"Test System: AMES SALMONELLA TYPHIMURIUM, Strain/Indicator: TA98, Metabolic Activation: RAT, LIVER, S-9, Method: STANDARD PLATE",inactive; negative
same,mutagenic call,"Test System: AMES SALMONELLA TYPHIMURIUM, Strain/Indicator: TA100(1,8-DNP6), Metabolic Activation: NONE, Method: SUSPENSION/PLATE",inactive; negative
same,mutagenic call,"Test System: AMES SALMONELLA TYPHIMURIUM, Strain/Indicator: TA100(NR), Metabolic Activation: NONE, Method: SUSPENSION/PLATE",inactive; negative
same,mutagenic call,"Test System: AMES SALMONELLA TYPHIMURIUM, Strain/Indicator: TA100, Metabolic Activation: HAMSTER, LIVER, S-9, AROCLOR 1254 (10 OR 30%), Method: PREINCUBATION",inactive; negative
same,mutagenic call,"Test System: AMES SALMONELLA TYPHIMURIUM, Strain/Indicator: TA100, Metabolic Activation: HAMSTER, LIVER, S-9, AROCLOR 1254, Method: STANDARD PLATE",inactive; negative
same,mutagenic call,"Test System: AMES SALMONELLA TYPHIMURIUM, Strain/Indicator: TA100, Metabolic Activation: HAMSTER, LIVER, S-9, Method: STANDARD PLATE",inactive; negative
same,mutagenic call,"Test System: AMES SALMONELLA TYPHIMURIUM, Strain/Indicator: TA100, Metabolic Activation: MOUSE, LIVER, S-9, AROCLOR 1254, Method: STANDARD PLATE",inactive; negative
same,mutagenic call,"Test System: AMES SALMONELLA TYPHIMURIUM, Strain/Indicator: TA100, Metabolic Activation: MOUSE, LIVER, S-9, Method: STANDARD PLATE",inactive; negative
same,mutagenic call,"Test System: AMES SALMONELLA TYPHIMURIUM, Strain/Indicator: TA100, Metabolic Activation: NONE, Method: PREINCUBATION",inactive; negative
same,mutagenic call,"Test System: AMES SALMONELLA TYPHIMURIUM, Strain/Indicator: TA100, Metabolic Activation: NONE, Method: STANDARD PLATE",inactive; negative
same,mutagenic call,"Test System: AMES SALMONELLA TYPHIMURIUM, Strain/Indicator: TA100, Metabolic Activation: NONE, Method: SUSPENSION/PLATE",inactive; negative
same,mutagenic call,"Test System: AMES SALMONELLA TYPHIMURIUM, Strain/Indicator: TA100, Metabolic Activation: RAT, LIVER, S-9, AROCLOR 1254 (10 OR 30%), Method: PREINCUBATION",inactive; negative
same,mutagenic call,"Test System: AMES SALMONELLA TYPHIMURIUM, Strain/Indicator: TA100, Metabolic Activation: RAT, LIVER, S-9, AROCLOR 1254, Method: STANDARD PLATE",inactive; negative
same,mutagenic call,"Test System: AMES SALMONELLA TYPHIMURIUM, Strain/Indicator: TA100, Metabolic Activation: RAT, LIVER, S-9, Method: STANDARD PLATE",inactive; negative
same,mutagenic call,"Test System: AMES SALMONELLA TYPHIMURIUM, Strain/Indicator: TA102, Metabolic Activation: NONE, Method: SUSPENSION/PLATE",inactive; negative
same,mutagenic call,"Test System: AMES SALMONELLA TYPHIMURIUM, Strain/Indicator: TA1535, Metabolic Activation: HAMSTER, LIVER, S-9, AROCLOR 1254 (10 OR 30%), Method: PREINCUBATION",inactive; negative
same,mutagenic call,"Test System: AMES SALMONELLA TYPHIMURIUM, Strain/Indicator: TA1535, Metabolic Activation: HAMSTER, LIVER, S-9, AROCLOR 1254, Method: STANDARD PLATE",inactive; negative
same,mutagenic call,"Test System: AMES SALMONELLA TYPHIMURIUM, Strain/Indicator: TA1535, Metabolic Activation: HAMSTER, LIVER, S-9, Method: STANDARD PLATE",inactive; negative
same,mutagenic call,"Test System: AMES SALMONELLA TYPHIMURIUM, Strain/Indicator: TA1535, Metabolic Activation: MOUSE, LIVER, S-9, AROCLOR 1254, Method: STANDARD PLATE",inactive; negative
same,mutagenic call,"Test System: AMES SALMONELLA TYPHIMURIUM, Strain/Indicator: TA1535, Metabolic Activation: MOUSE, LIVER, S-9, Method: STANDARD PLATE",inactive; negative
same,mutagenic call,"Test System: AMES SALMONELLA TYPHIMURIUM, Strain/Indicator: TA1535, Metabolic Activation: NONE, Method: PREINCUBATION",inactive; negative
